What was measured:
[1] = molecular target: T1, Ectonucleotide pyrophosphatase/phosphodiesterase family member 1 (Homo sapiens, UniProt P22413); experiment: Inhibition of human full length NPP1 expressed in African green monkey COS7 cell membrane fraction using p-nitrophenyl-5'-thymidine monophosphate as substrate preincubated for 10 mins followed by substrate addition measured after 30 mins
T1 sequence (P22413 whole entry): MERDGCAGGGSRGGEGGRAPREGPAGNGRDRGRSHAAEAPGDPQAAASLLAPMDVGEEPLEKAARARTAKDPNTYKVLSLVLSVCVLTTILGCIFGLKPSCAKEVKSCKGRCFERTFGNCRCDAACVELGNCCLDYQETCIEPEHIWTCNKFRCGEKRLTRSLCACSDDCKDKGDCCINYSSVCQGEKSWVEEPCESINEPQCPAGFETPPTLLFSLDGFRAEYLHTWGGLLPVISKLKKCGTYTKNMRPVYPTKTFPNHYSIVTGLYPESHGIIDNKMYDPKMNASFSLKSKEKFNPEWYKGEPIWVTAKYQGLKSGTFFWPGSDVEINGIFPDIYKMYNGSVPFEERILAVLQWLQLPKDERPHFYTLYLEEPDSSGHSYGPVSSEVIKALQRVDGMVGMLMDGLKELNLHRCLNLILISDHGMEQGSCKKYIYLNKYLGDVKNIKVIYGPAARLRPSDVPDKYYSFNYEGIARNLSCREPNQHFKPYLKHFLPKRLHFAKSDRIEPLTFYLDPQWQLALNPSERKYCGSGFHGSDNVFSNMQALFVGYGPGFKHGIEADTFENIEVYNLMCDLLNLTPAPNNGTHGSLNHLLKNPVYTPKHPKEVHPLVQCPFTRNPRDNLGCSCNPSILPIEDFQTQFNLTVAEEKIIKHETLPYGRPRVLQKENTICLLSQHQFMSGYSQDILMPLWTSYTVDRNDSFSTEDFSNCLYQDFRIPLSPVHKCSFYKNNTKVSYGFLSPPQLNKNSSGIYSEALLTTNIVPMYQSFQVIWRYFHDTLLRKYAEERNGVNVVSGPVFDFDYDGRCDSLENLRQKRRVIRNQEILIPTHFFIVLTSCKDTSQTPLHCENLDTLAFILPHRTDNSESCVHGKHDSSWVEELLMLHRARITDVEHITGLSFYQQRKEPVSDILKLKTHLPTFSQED

[2] = molecular target: T2, Ectonucleotide pyrophosphatase/phosphodiesterase family member 3 (Homo sapiens, UniProt O14638); experiment: Inhibition of human full length NPP3 expressed in African green monkey COS7 cell membrane fraction using p-nitrophenyl-5'-thymidine monophosphate as substrate preincubated for 10 mins followed by substrate addition measured after 30 mins
T2 sequence (O14638 whole entry): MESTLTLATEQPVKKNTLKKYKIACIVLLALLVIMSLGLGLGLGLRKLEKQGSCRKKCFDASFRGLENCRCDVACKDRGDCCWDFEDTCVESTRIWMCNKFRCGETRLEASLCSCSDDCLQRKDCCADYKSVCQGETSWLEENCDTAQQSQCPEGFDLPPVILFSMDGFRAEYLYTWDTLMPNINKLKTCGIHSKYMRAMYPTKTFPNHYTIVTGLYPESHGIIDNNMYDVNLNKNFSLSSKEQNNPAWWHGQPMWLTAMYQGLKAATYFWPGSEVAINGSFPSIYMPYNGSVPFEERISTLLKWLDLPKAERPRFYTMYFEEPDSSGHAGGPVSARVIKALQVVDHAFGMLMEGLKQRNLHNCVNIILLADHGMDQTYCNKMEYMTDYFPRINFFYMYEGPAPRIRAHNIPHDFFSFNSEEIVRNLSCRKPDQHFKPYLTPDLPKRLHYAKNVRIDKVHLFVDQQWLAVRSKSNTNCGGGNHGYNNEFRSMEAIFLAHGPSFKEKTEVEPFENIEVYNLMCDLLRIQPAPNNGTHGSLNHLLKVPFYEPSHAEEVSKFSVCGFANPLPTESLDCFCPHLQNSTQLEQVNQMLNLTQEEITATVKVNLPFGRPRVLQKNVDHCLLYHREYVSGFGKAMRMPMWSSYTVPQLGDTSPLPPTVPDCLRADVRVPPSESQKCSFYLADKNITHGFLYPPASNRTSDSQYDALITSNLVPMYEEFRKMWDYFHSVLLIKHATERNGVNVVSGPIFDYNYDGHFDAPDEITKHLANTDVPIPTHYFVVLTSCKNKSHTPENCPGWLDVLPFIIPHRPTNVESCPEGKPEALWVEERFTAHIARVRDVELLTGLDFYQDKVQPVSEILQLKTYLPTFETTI

[3] = molecular target: T3, Ectonucleoside triphosphate diphosphohydrolase 1 (Homo sapiens, UniProt P49961); experiment: Inhibition of human NTPDase1 expressed in African green monkey COS7 cell membrane fraction using ATP as substrate preincubated for 10 mins followed by substrate addition measured after 10 mins by malachite green reagent-based assay
T3 sequence (P49961 whole entry): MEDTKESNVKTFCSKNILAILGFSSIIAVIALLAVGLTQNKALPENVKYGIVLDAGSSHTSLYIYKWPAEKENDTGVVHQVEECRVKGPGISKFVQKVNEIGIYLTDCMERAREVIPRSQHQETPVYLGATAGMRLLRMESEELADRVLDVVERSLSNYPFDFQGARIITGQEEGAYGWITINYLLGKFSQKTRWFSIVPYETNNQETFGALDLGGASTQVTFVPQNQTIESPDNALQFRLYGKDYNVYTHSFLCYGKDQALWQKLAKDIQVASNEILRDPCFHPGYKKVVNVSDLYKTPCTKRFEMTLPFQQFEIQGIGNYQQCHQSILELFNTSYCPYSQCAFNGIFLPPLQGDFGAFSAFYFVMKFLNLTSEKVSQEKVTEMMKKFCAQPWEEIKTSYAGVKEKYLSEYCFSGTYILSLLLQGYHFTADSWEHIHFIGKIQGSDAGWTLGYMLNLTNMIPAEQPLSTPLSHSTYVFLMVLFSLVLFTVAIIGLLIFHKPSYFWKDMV

[4] = molecular target: T4, Ectonucleoside triphosphate diphosphohydrolase 2 (Homo sapiens, UniProt Q9Y5L3); experiment: Inhibition of human NTPDase2 expressed in African green monkey COS7 cell membrane fraction using ATP as substrate preincubated for 10 mins followed by substrate addition measured after 10 mins by malachite green reagent-based assay
T4 sequence (Q9Y5L3 whole entry): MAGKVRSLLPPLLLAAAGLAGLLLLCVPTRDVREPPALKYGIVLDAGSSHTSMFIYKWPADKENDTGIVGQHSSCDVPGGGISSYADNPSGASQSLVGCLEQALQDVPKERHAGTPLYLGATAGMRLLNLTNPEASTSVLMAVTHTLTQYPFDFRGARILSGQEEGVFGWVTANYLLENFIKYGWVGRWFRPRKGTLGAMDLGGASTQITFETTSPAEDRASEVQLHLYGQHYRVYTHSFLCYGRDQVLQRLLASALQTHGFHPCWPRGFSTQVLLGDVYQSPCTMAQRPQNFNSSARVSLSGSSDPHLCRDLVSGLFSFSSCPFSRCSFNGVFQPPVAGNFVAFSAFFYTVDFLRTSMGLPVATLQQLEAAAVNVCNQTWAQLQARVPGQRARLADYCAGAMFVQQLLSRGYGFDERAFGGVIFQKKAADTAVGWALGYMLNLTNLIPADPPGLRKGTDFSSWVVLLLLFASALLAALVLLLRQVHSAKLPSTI

[5] = molecular target: T5, Ectonucleoside triphosphate diphosphohydrolase 3 (Homo sapiens, UniProt O75355); experiment: Inhibition of human NTPDase3 expressed in African green monkey COS7 cell membrane fraction using ATP as substrate preincubated for 10 mins followed by substrate addition measured after 10 mins by malachite green reagent-based assay
T5 sequence (O75355 whole entry): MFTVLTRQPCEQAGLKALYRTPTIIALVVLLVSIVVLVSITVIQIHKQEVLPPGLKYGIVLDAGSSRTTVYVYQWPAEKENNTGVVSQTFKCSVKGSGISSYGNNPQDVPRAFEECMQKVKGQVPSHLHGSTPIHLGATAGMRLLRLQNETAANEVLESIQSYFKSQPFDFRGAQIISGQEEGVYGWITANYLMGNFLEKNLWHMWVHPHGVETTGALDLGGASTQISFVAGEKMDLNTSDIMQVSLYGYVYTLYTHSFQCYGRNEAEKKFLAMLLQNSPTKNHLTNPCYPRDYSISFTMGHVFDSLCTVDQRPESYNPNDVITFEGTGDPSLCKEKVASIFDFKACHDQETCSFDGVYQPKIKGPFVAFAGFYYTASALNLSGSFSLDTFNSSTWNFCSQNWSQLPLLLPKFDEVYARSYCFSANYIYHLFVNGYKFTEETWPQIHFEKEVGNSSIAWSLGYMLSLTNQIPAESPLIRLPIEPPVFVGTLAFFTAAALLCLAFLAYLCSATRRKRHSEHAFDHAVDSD

[6] = molecular target: T6, Ectonucleoside triphosphate diphosphohydrolase 8 (Homo sapiens, UniProt Q5MY95); experiment: Inhibition of human NTPDase8 expressed in African green monkey COS7 cell membrane fraction using ATP as substrate preincubated for 10 mins followed by substrate addition measured after 10 mins by malachite green reagent-based assay
T6 sequence (Q5MY95 whole entry): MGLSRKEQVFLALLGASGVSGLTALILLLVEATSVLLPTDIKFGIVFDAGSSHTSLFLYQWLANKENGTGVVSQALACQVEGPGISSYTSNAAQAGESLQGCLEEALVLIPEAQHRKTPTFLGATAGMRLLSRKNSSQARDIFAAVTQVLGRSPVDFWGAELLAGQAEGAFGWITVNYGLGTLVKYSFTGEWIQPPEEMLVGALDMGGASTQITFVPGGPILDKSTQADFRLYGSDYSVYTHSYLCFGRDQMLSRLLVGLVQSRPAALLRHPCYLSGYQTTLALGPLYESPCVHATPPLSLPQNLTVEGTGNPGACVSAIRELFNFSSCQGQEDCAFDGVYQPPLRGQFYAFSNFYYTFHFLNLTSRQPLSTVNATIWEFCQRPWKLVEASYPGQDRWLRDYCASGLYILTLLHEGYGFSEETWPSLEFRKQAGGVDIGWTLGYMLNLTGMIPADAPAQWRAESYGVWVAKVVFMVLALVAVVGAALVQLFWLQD

Compound | IC50 [1] | IC50 [2] | IC50 [3] | IC50 [4] | IC50 [5] | IC50 [6]
FC(F)(F)c1nc2c(Br)cccc2c(Cl)c1Br | 7650 nM | 0.39 µM |  |  |  | 
Cc1cccc(-c2c(C(F)(F)F)nc3c(-c4cccc(C)c4)cccc3c2-c2cccc(C)c2)c1 | 20700 nM | > 100 µM | > 300 µM | > 300 µM | > 300 µM | > 300 µM
FC(F)(F)c1nc2c(-c3ccccc3)cccc2c(Cl)c1-c1ccccc1 | 2810 nM | > 100 µM | > 300 µM | > 300 µM | > 300 µM | > 300 µM
COc1ccc(OC)c(-c2cccc3c(Cl)c(Br)c(C(F)(F)F)nc23)c1 | 250 nM | 0.36 µM |  |  |  | 
Fc1ccc(-c2c(C(F)(F)F)nc3c(-c4ccc(F)cc4)cccc3c2-c2ccc(F)cc2)cc1 | 510 nM | > 100 µM |  |  |  | 
N#Cc1cccc(-c2cccc3c(Cl)c(Br)c(C(F)(F)F)nc23)c1 | 350 nM | > 100 µM |  |  |  | 
FC(F)(F)c1nc2c(-c3ccsc3)cccc2c(Cl)c1Br | 5760 nM | > 100 µM | > 300 µM | > 300 µM | > 300 µM | > 300 µM
FC(F)(F)c1nc2c(-c3ccccc3)cccc2c(-c2ccccc2)c1-c1ccccc1 | 180 nM | > 100 µM |  |  |  | 
FC(F)(F)c1ccc(-c2cccc3c(Cl)c(Br)c(C(F)(F)F)nc23)cc1 | 310 nM | > 100 µM |  |  |  | 
COc1ccc(-c2cccc3c(Cl)c(Br)c(C(F)(F)F)nc23)cc1 | 390 nM | 1.14 µM |  |  |  | 
Cc1ccc(-c2c(C(F)(F)F)nc3c(-c4ccc(C)cc4)cccc3c2-c2ccc(C)cc2)cc1 | 730 nM | > 100 µM |  |  |  | 
COc1ccc(-c2c(C(F)(F)F)nc3c(-c4ccc(OC)cc4)cccc3c2-c2ccc(OC)cc2)cc1 | 9870 nM | > 100 µM | > 300 µM | > 300 µM | > 300 µM | > 300 µM
O=c1c(Br)c(C(F)(F)F)[nH]c2c(Br)cccc12 | 630 nM | 2.42 µM |  |  |  | 
Cc1ccc(C(=O)Nc2ccc(S(=O)(=O)O)c3cc(S(=O)(=O)O)cc(S(=O)(=O)O)c23)cc1NC(=O)c1cccc(NC(=O)Nc2cccc(C(=O)Nc3cc(C(=O)Nc4ccc(S(=O)(=O)O)c5cc(S(=O)(=O)O)cc(S(=O)(=O)O)c45)ccc3C)c2)c1 [SURAMIN] |  |  |  |  |  | > 100 µM
